Paper PMC3391414 (Journal of Agricultural and Food Chemistry, 2011)
Entries after “also recorded” stand apart in the source; their conditions may differ. Read-outs that look alike come from different tables or passages of the source.

Key:
UGT1A3 = molecular target: T1, UGT1A3 (Homo sapiens, UniProt P35503); conditions: pH 7.4
T1 sequence (P35503 29-534): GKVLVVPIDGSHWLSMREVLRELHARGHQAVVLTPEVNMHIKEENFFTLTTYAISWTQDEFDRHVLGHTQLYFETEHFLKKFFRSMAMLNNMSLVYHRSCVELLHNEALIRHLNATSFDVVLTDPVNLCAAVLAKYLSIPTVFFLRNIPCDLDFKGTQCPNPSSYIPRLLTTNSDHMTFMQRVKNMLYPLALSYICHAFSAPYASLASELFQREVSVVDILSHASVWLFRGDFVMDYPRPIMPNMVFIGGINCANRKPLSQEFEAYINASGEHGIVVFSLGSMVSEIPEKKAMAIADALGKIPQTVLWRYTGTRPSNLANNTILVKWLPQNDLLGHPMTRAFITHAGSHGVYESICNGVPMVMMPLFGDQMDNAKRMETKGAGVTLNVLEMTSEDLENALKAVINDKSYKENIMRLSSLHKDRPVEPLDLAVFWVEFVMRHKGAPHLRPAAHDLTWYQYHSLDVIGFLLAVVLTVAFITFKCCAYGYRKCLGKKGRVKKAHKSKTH

UGT1A9 [1] = molecular target: T2, UGT1A9 (Homo sapiens, UniProt O60656); conditions: pH 7.4
T2 sequence (O60656 26-530): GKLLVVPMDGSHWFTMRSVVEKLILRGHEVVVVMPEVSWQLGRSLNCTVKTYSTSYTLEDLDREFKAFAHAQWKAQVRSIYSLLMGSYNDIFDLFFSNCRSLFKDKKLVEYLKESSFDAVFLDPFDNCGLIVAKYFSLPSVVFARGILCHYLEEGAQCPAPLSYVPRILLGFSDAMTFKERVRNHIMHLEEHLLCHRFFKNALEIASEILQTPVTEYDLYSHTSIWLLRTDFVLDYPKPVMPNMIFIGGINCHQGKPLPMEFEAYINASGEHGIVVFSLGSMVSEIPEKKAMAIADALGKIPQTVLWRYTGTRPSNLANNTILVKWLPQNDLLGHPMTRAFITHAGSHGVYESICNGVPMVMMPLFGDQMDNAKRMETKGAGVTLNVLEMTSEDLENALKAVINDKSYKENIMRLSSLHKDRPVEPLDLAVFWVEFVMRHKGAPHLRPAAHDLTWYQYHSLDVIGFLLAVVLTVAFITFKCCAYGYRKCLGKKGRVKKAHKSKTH

UGT2B7 = molecular target: T3, UGT2B7 (Homo sapiens, UniProt P16662); conditions: 10 μM, pH 7.4
T3 sequence (P16662 24-529): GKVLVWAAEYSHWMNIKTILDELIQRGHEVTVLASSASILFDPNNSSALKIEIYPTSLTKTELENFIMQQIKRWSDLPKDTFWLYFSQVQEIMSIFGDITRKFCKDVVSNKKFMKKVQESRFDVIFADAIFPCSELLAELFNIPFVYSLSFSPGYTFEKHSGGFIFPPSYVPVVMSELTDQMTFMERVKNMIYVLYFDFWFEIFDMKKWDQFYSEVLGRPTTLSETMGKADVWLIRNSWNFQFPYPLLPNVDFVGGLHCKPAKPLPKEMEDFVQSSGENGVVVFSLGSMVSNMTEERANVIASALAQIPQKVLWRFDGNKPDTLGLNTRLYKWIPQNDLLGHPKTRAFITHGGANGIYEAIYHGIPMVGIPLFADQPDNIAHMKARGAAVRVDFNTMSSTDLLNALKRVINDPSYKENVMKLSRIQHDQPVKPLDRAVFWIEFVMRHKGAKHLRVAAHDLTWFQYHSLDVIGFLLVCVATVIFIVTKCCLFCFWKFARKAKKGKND

UGT1A6 = molecular target: T4, UGT1A6 (Homo sapiens, UniProt P19224); assay: Glucuronidation by recombinant human UGT1A6; conditions: UGT1A6, substrate 10 μM
T4 sequence (P19224 27-532): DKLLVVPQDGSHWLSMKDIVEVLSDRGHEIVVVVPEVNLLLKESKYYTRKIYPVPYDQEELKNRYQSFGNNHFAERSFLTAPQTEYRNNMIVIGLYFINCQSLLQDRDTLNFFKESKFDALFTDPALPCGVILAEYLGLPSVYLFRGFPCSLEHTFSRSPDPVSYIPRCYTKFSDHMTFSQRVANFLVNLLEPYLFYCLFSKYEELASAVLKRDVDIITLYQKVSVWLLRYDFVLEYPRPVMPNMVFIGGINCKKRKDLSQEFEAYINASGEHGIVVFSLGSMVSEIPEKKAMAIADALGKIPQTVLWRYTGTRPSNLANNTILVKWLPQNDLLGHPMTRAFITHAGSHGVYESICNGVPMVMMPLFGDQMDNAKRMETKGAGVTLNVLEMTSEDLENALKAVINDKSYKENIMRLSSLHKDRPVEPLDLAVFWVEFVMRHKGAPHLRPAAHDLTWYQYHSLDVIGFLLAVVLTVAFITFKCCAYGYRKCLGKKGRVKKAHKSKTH

UGT1A7 = molecular target: T5, UGT1A7 (Homo sapiens, UniProt Q9HAW7); assay: Glucuronidation by recombinant human UGT1A7; conditions: UGT1A7, substrate 10 μM
T5 sequence (Q9HAW7 26-530): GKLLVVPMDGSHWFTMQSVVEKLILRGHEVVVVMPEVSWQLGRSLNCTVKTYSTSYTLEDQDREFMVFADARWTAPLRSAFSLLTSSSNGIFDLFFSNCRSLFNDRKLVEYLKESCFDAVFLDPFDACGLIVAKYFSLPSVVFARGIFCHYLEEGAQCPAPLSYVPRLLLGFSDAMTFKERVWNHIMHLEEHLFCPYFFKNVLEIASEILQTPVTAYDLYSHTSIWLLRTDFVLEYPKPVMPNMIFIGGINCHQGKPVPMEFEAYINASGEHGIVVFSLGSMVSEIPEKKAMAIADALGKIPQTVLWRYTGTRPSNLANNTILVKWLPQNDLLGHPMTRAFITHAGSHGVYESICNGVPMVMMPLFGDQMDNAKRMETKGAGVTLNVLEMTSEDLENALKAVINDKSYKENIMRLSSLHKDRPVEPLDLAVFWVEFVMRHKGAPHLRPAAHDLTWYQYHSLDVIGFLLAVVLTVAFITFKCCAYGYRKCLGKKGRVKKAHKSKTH

UGT1A9 [2] = molecular target: T2, UGT1A9; assay: Glucuronidation by recombinant human UGT1A9
[3] = tested on: UGT 1A1, 1A3, 1A6, 1A7, 1A8, 1A9, 1A10 and 2B7; assay: Glucuronidation by the panel of 8 recombinant human UGT isoforms; conditions: substrate 10 μM

O=c1cc(-c2ccccc2)oc2cc(O)cc(O)c12 [5,7DHF, 5,7-dihydroxyflavone]
Degree of regiospecificity (major glucuronide in bracket) (UGT1A3; 2.5 μM): Dominant (7-O) | Hydroxyl positions glucuronidated (UGT1A3; 10 μM): glucuronidated 7-O position only | Degree of regiospecificity (major glucuronide in bracket) (UGT1A9 [1]; 2.5 μM): Dominant (7-O) | Hydroxyl positions glucuronidated (UGT1A9 [1]; 10 μM): glucuronidated 7-O position only | Hydroxyl positions glucuronidated (UGT2B7): glucuronidated both 7-O and 5-O positions

O=c1c(O)c(-c2ccc(O)cc2)oc2cc(O)cc(O)c12 [5,7,4'THFnol, 3,5,7,4’-tetrahydroxyflavone]
Hydroxyl positions glucuronidated (UGT1A6): glucuronidated only 7-O and 4’-O | Hydroxyl positions glucuronidated (UGT1A7): glucuronidated 3-O, 7-O and 4’-O | Degree of regiospecificity (major glucuronide in bracket) (UGT1A9 [2]; UGT1A9, substrate 2.5 μM): Moderate (3-O) | Degree of regiospecificity (major glucuronide in bracket) (UGT1A9 [2]; UGT1A9, substrate 2.5 μM, listed as 5,7,4’THFnol): moderate regiospecificity for glucuronidation of 3-O position | Degree of regiospecificity (major glucuronide in bracket) (UGT1A9 [2]; UGT1A9, substrate 10 μM): Weak (3-O) | Hydroxyl positions glucuronidated (UGT1A9 [2]; UGT1A9, substrate 10 μM): glucuronidated only 3-O and 7-O positions | Degree of regiospecificity (major glucuronide in bracket) (UGT1A9 [2]; UGT1A9, substrate 10 μM, listed as 5,7,4’THFnol): only weakly preferred 3-O position; also recorded: weak regiospecificity for glucuronidation of 3-O position | Degree of regiospecificity (3-O vs 7-O) (UGT1A9 [2]; UGT1A9, substrate 35 μM): no regiospecificity | Glucuronidation and regiospecificity across the 8 UGT isoforms [3]: 5-O position was not significantly glucuronidated by any isoform
